Assay results from ChEMBL document CHEMBL6134780, “Halogenated retinoid derivatives as dual RARα and RXRα modulators for treating acute promyelocytic leukemia cells” (Eur J Med Chem, 2024).
The source made the active and inactive calls. No cut-off for these calls is given here.

Experiments:
[1] = test system: NB-4; assay: Cell cycle arrest in human NB4 cells assessed as accumulation of cells at S phase at 0.5 uM incubated for 6 days for DAPI staining based flow cytometric analysis (reference value: 27 %); assay type: functional; details: time 6 day
[2] = test system: ATRA-resistant NB4-LR2; assay: Induction of cell differentiation in human ATRA-resistant NB4-LR2 cells at 0.5 uM incubated for 6 days by flow cytometric analysis; assay type: functional, cell-based; details: time 6.0 day
[3] = test system: NB-4; assay: Induction of apoptosis in human NB4 cells assessed as late apoptotic cells at 1 uM incubated for 24 hrs by Annexin V-FITC/PI staining based flow cytometric analysis (reference value: 3.20 %); assay type: functional
[4] = test system: K562; assay: Induction of apoptosis in human K562 cells assessed as early apoptotic cells at 2 uM incubated for 24 hrs by Annexin V-FITC/PI staining based flow cytometric analysis (reference value: 0.91 %); assay type: functional
[5] = test system: K562; assay: Induction of apoptosis in human K562 cells assessed as necrotic cells at 2 uM incubated for 24 hrs by Annexin V-FITC/PI staining based flow cytometric analysis (reference value: 2.19 %); assay type: functional
[6] = molecular target: T1, Retinoic acid receptor beta (Homo sapiens) (UniProt P10826); assay: Agonist activity at Gal4-fused full length RARbeta LBD (unknown origin) transfected in HEK293T cells co-transfected with pG5luc reporter and Renilla-luc at 0.1 to 1 uM incubated for 12 hrs by luciferase reporter gene assay; assay type: cell-based; details: dose 0.1-1 µM
T1 sequence (whole entry): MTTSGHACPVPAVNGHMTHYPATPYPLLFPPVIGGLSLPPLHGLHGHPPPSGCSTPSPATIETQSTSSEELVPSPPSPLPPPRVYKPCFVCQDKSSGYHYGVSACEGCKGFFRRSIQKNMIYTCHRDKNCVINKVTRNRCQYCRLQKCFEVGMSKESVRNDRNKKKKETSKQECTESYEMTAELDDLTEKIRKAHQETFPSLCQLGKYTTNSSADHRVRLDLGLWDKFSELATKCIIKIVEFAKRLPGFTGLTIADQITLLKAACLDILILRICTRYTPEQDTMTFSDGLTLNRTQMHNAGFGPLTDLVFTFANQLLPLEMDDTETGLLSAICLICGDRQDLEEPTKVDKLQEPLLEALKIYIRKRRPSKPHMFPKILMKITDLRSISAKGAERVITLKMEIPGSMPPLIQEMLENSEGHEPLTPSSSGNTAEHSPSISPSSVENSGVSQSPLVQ

[7] = molecular target: Oxysterols receptor LXR-beta (Homo sapiens) (UniProt P55055); assay: Agonist activity at Gal4-fused full length LXRbeta LBD (unknown origin) transfected in HEK293T cells co-transfected with pG5luc reporter and Renilla-luc at 0.1 to 1 uM incubated for 12 hrs by luciferase reporter gene assay; assay type: cell-based; details: dose 0.1-1 µM
Oxysterols receptor LXR-beta (Homo sapiens), sequence (P55055 whole entry, the tested form may be a part): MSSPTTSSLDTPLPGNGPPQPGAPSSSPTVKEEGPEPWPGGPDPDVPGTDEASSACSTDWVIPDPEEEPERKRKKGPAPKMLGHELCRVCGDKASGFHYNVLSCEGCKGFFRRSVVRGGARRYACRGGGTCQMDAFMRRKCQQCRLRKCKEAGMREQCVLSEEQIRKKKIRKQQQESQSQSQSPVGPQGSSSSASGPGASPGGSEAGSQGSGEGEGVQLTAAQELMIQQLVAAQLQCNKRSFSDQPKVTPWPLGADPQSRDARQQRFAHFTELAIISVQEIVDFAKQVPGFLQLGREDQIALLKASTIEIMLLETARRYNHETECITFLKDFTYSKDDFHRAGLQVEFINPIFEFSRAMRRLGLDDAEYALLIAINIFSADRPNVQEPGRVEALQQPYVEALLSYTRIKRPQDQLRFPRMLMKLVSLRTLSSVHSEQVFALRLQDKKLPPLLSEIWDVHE

[8] = molecular target: T2, Retinoic acid receptor RXR-beta (Homo sapiens) (UniProt P28702); assay: Competitive binding affinity to Gal4-fused full length RXRbeta LBD (unknown origin) transfected in HEK293T cells co-transfected with pG5luc reporter and Renilla-luc at 0.1 to 1 uM incubated for 12 hrs in presence of ATRA by luciferase reporter gene assay; assay type: cell-based; details: dose 0.1-1 µM
T2 sequence (whole entry): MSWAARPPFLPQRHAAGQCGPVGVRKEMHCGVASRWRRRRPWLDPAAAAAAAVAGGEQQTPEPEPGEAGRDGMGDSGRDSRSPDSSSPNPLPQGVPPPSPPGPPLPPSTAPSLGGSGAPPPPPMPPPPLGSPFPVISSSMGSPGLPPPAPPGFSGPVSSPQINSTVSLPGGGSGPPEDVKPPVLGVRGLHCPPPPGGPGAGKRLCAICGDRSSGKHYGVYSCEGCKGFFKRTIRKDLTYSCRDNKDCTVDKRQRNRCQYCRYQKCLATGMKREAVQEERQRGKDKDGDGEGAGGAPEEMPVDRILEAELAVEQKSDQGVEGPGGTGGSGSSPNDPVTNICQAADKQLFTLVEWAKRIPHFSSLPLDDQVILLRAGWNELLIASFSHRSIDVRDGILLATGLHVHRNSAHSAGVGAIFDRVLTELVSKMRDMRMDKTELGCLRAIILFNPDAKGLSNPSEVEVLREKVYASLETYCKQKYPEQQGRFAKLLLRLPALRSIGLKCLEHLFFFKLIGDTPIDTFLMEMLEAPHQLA

[9] = molecular target: T2, Retinoic acid receptor RXR-beta (Homo sapiens); assay: Competitive binding affinity to Gal4-fused full length RXRbeta LBD (unknown origin) transfected in HEK293T cells co-transfected with pG5luc reporter and Renilla-luc assessed as inhibition of 9-cis-RA induced transactivation at 0.1 to 1 uM incubated for 12 hrs by luciferase reporter gene assay; assay type: cell-based; details: dose 0.1-1 µM
[10] = molecular target: T3, Retinoic acid receptor gamma (Homo sapiens) (UniProt P13631); assay: Agonist activity at Gal4-fused full length human RARgamma LBD transfected in HEK293T cells co-transfected with pG5luc reporter and Renilla-luc assessed as transactivation by measuring maximal efficacy incubated for 12 hrs by dual luciferase reporter gene assay relative to control; assay type: cell-based
T3 sequence (whole entry): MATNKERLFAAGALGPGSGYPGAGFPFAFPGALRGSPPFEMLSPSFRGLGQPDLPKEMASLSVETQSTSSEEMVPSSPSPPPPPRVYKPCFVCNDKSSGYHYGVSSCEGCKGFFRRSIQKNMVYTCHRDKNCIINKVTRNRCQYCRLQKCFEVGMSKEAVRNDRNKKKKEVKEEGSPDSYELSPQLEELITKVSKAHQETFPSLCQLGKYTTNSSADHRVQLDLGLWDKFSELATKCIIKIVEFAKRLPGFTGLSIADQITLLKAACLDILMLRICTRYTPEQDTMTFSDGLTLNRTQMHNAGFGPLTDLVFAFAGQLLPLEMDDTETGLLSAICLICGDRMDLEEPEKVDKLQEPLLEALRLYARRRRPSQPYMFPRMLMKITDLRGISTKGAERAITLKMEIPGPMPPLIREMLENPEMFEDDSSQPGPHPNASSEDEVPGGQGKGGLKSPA

[11] = test system: HeLa; assay: Induction of 3-flag-tagged PML-RARalpha (unknown origin) degradation transfected in human HeLa cells at 1 to 2 uM incubated for 24 hrs by Western blot analysis; assay type: cell-based; details: dose 1-2 µM
[12] = test system: NB-4; assay: Cell cycle arrest in human NB4 cells assessed as increase in PLK1 expression at 2 uM incubated for 3 to 24 hrs by Western blot analysis; assay type: functional, cell-based; details: time 3-24 hrs

Structure (SMILES) | Activity [1] | Activity [2] | Activity [3] | Activity [4] | Activity [5] | Activity [6] | Activity [7] | Activity [8] | Activity [9] | Emax [10] | Activity [11] | Activity [12]
Cc1cc2c(cc1C(=O)/C(Br)=C/c1ccc(C(=O)O)cc1)C(C)(C)CCC2(C)C | 7% | Minimal_effect | 15.77% | 1.18% | 2.27% | Minimal_effect | Minimal_effect | Not active; No Significant Competitive Effect On Atra Activation Observed | Weak_effect | 15% | Active | Active
Cc1cc2c(cc1C(=O)/C(Br)=C\c1ccc(C(=O)O)cc1)C(C)(C)CCC2(C)C | 8% | Minimal_effect | 10.49% | 1.05% | 3.03% | Minimal_effect | Minimal_effect | Not active; No Significant Competitive Effect On Atra Activation Observed | Weak_effect | 2% | Active | Active
